Test results taken from patent publication US9963452B2, “Methods, compounds, and compositions for inhibition of ROS” (AUGUSTA PHARMACEUTICALS INC., priority 2013, dated 2018).

Tests used:
Format in all cases: cell-based
[1] = test system: HeLa cervical cancer cell line; experiment: In-vitro cell survival assay (Alamar blue), HeLa; details: one day after compound addition
Description: (§1) Five tumor-derived cell lines were treated with the ROS inhibitor compounds and cell survival was monitored to determine the cancer prohibition effects of the compounds. The cell lines included HeLa, a cervical cancer cell line, and four glioblastoma cell lines U138, U87, LN18, and U118. The basic protocol for the in-vitro cell survival assay is the same for all five cell lines. In particular, the cells were seeded in 96-well plates at 2-5×10^3 cells/well (cell line dependent) in culture medium. The cells were grown for 2 days before the compounds were dissolved in DMSO and added to final concentrations of 100 uM, 10 uM, or 1 uM (DMSO final concentration 0.5%). The cell culture was then assayed one day after the addition of the compounds. The assay used Alamar blue as a redox-sensitive dye that interrogates mitochondrial fitness of cells, and these assays provided a readout for cell proliferation and viability. The raw values were normalized to an average of several vehicle control wells and are presented as percent decrease in proliferation/viability, which is converted to half maximal effective concentration (EC50) values.

[2] = test system: U87 glioblastoma cell line; experiment: In-vitro cell survival assay (Alamar blue), U87; details: U87, one day after compound addition
Description: as §1

[3] = test system: U138 glioblastoma cell line; experiment: In-vitro cell survival assay (Alamar blue), U138; details: U138, one day after compound addition
Description: as §1

[4] = test system: U118 glioblastoma cell line; experiment: In-vitro cell survival assay (Alamar blue), U118; details: U118, one day after compound addition
Description: as §1

[5] = test system: LN18 glioblastoma cell line; experiment: In-vitro cell survival assay (Alamar blue), LN18; details: LN18, one day after compound addition
Description: as §1

SMILES | EC50 ([1]; Homo sapiens, 24 h) [µM] | EC50 ([2]; 24 h) [µM] | EC50 ([3]; 24 h) [µM] | EC50 ([4]; 24 h) [µM] | EC50 ([5]; Homo sapiens, LN-18, 24 h) [µM] | EC50 [1] [µM] | EC50 [2] [µM] | EC50 [3] [µM] | EC50 [4] [µM] | EC50 [5] [µM]
O=C(NC[C@H]1Cc2cc(-c3cncnc3)cc(Cl)c2O1)c1cccc(Cn2cccn2)c1 | > 100 | > 100 | > 100 | > 100 | > 100 | – | – | – | – | –
Cc1cc(C)n(-c2cccc(C(=O)NC[C@H]3Cc4cc(Cl)cc(-c5cnccn5)c4O3)c2)n1 | 70 | 94 | > 100 | 96 | 64 | – | – | – | – | –
COc1ccccc1C1C(C#N)=C(N)Oc2[nH]nc(C(F)(F)F)c21 (stereo not shown) | – | – | – | – | – | 90 | 80 | 84 | > 100 | 62
Nc1nc(Nc2ccc(C(=O)N3CCC[C@H]4CCCC[C@H]43)cc2)cc(Nc2ccc3ncsc3c2)n1 | 58 | 30 | > 100 | > 100 | 14 | – | – | – | – | –
COc1ccc(C(NC(=O)c2[nH]nc(-c3ccccc3)c2C)c2ccncc2)cc1 (stereo not shown) | – | – | – | – | – | > 100 | > 100 | > 100 | > 100 | 59
O=C(NC[C@@H]1CCCO1)c1cccc(Nc2nccc(Nc3ccc4ncsc4c3)n2)c1 | 11 | 16 | > 100 | > 100 | 15 | – | – | – | – | –
O=C(c1ccccc1)n1nc(-c2ccco2)nc1NCc1ccccc1 | > 100 | > 100 | > 100 | > 100 | > 100 | – | – | – | – | –
Cc1ccc(Cn2c(NCc3nc4ccccc4n3C)nc3ccccc32)cc1 [drawing 355] | > 100 | > 100 | > 100 | > 100 | > 100 | – | – | – | – | –
NC(=O)c1c(NC(=O)[C@H]2CC(=O)N(c3ccccc3)C2)sc2c1CCCC2 [drawing 356] | > 100 | > 100 | > 100 | > 100 | > 100 | – | – | – | – | –
Clc1ccc2nc(NCc3ccccn3)nc(-c3ccccc3)c2c1 [drawing 357] | > 100 | 71 | > 100 | > 100 | 16 | – | – | – | – | –
NS(=O)(=O)c1ccc(CCNC(=O)c2cc(-c3cccs3)nc3ccccc23)cc1 [drawing 358] | > 100 | > 100 | > 100 | 29 | 25 | – | – | – | – | –
Cc1[nH]c2nc(NCc3cccc([N+](=O)[O-])c3)nn2c(=O)c1Cc1ccccc1 [drawing 359] | > 100 | 45 | > 100 | > 100 | > 100 | – | – | – | – | –
COc1ccccc1-c1cc(C(F)F)n2ncc(C(=O)NCc3cccnc3)c2n1 [drawing 361] | > 100 | 22 | > 100 | > 100 | 16 | – | – | – | – | –
CCOC(Nc1cc(-c2sccc2-n2c(C)ccc2C)[nH]n1)OCC [drawing 364] | – | – | – | – | – | > 100 | 26 | > 100 | > 100 | > 100
O=c1cc(Oc2ccccc2)c(-c2nc[nH]n2)nn1-c1ccccc1 [drawing 365] | – | – | – | – | – | > 100 | 26 | > 100 | > 100 | > 100
O=C(NNc1nc2ccccc2nc1Cc1ccccc1)c1cccc(Cl)c1 [drawing 366] | > 100 | 25 | > 100 | > 100 | 22 | – | – | – | – | –
Cc1cccc(Nc2ccnc(Nc3cccc(C(=O)N4CC=CCC4)c3)n2)c1 [drawing 371] | 25 | 17 | > 100 | 28 | 13 | – | – | – | – | –
O=C(NCCc1ccc(F)cc1)c1cccc(Nc2nccc(Nc3ccc4ncsc4c3)n2)c1 [drawing 372] | 5 | 10 | 8 | 9 | 6 | – | – | – | – | –
CCN(CC)CCNC(=O)c1cccc(Nc2nccc(Nc3ccc4ncsc4c3)n2)c1 [drawing 373] | 15 | 37 | 45 | 35 | 15 | – | – | – | – | –
Nc1nc(Nc2ccc(C(=O)NCc3ccco3)cc2)cc(Nc2ccc3ncsc3c2)n1 [drawing 375] | 44 | 32 | > 100 | 27 | 18 | – | – | – | – | –
O=C(NCc1ccco1)c1cccc(Nc2nccc(Nc3ccc4ncsc4c3)n2)c1 [drawing 376] | 10 | 21 | 35 | 18 | 10 | – | – | – | – | –
COc1cccc(Nc2cc(Nc3cccc(C(=O)N4CCN(C(C)=O)CC4)c3)nc(N)n2)c1 [drawing 377] | > 100 | > 100 | > 100 | 91 | 64 | – | – | – | – | –

SMILES | EC50 ([1]; Homo sapiens, 24 h) [µM] | EC50 ([2]; 24 h) [µM] | EC50 ([3]; 24 h) [µM] | EC50 ([4]; 24 h) [µM] | EC50 ([5]; Homo sapiens, LN-18, 24 h) [µM] | EC50 [1] [µM] | EC50 [2] [µM] | EC50 [3] [µM] | EC50 [4] [µM] | EC50 [5] [µM]
CC(=O)N[C@@H]1CCN(C(=O)c2cccc(Nc3cc(N(C)c4cccc(C)c4)ncn3)c2)C1 [drawing 378] | > 100 | > 100 | > 100 | > 100 | > 100 | – | – | – | – | –
Cc1cccc(Nc2nccc(Nc3cccc(C(=O)NCc4ccc(F)cc4)c3)n2)c1 [drawing 379] | 13 | 13 | 19 | 28 | 7 | – | – | – | – | –
CCC(C)(C)NC(=O)c1cccc(Nc2nccc(Nc3ccc4ncsc4c3)n2)c1 [drawing 380] | 8 | 22 | 46 | 15 | 15 | – | – | – | – | –
Cc1cccc(Nc2nccc(Nc3cccc(C(=O)NCCN4CCOCC4)c3)n2)c1 [drawing 381] | 43 | 36 | 54 | 17 | 11 | – | – | – | – | –
Cc1cccc(Nc2nccc(Nc3cccc(C(=O)Nc4ccc(F)cc4)c3)n2)c1 [drawing 382] | 14 | 27 | 75 | 30 | 6 | – | – | – | – | –
Clc1ccc(CNc2cc(-c3ccccc3)ncn2)cc1 [drawing 383] | > 100 | 38 | 62 | 33 | 62 | – | – | – | – | –
COc1cccc(Nc2nc(N)c(C(=O)c3c(C)[nH]c4ccccc34)s2)c1 [drawing 384] | 72 | 15 | 19 | 16 | 10 | – | – | – | – | –
O=C(c1cccc(-c2noc(-c3n[nH]c4c3CCCC4)n2)c1)N1CCCCC1 [drawing 385] | > 100 | 14 | 83 | 83 | 62 | – | – | – | – | –
CCN(CCO)c1nc(Nc2ccc(F)cc2)c2cnn(-c3ccccc3)c2n1 [drawing 386] | 54 | 10 | 57 | 58 | 7 | – | – | – | – | –
COc1ccc(Nc2nc(N(C)CCO)nc3c2cnn3-c2ccccc2)cc1 [drawing 387] | 7 | 11 | 9 | 8 | 6 | – | – | – | – | –
CC(C)(C)c1cc(C(=O)NNc2cccc(Cl)c2)n(Cc2ccccc2)n1 [drawing 389] | > 100 | 50 | > 100 | > 100 | > 100 | – | – | – | – | –
O=C(NNc1cc(C(F)(F)F)ccc1Cl)c1cccnc1Oc1ccccc1 [drawing 390] | 59 | 96 | > 100 | > 100 | 58 | – | – | – | – | –
O=C1NCCN1CCN1C(=O)c2ccccc2N[C@H]1c1ccccc1 [drawing 391] | > 100 | > 100 | > 100 | 38 | 36 | – | – | – | – | –
O=C1NN=C(c2ccccc2)/C1=C1\OC(c2ccccc2)=CS1 [drawing 392] | 23 | 37 | > 100 | 27 | 17 | – | – | – | – | –
Cc1ccc(-n2cc(-c3cccs3)nc2SCc2n[nH]c(=S)n2Cc2ccccc2)cc1 [drawing 393] | – | – | – | – | – | > 100 | 24 | > 100 | > 100 | > 100
O=c1[nH][nH]c2nnc(-c3ccccc3)c(-c3ccccc3)c12 [drawing 394] | – | – | – | – | – | > 100 | 28 | > 100 | > 100 | > 100
Nc1nc(N)n(-c2ccccc2)/c(=N/c2ccccc2)n1 [drawing 395] | > 100 | 33 | > 100 | > 100 | > 100 | – | – | – | – | –
CSc1sc(-c2n[nH]cc2Br)c2c1C(=O)CC(C)(C)C2 [drawing 396] | – | – | – | – | – | > 100 | 18 | > 100 | > 100 | 94
FC(F)(F)c1cc(-n2c(Cc3cccc4ccccc34)n[nH]c2=S)cc(C(F)(F)F)c1 [drawing 397] | – | – | – | – | – | 62 | 20 | > 100 | > 100 | > 100
COc1ccc(NC(=O)CC2=Nc3cccc4cccc(c34)NC2=O)cc1 [drawing 482] | 17 | – | > 100 | > 100 | – | – | – | – | – | –
O=C(CC1=Nc2cccc3cccc(c23)NC1=O)NCc1cccc(I)c1 [drawing 483] | 10 | – | > 100 | 51 | – | – | – | – | – | –
